Laboratory results reported in patent US7396837B2, “Antitumoral analogs of lamellarins” (Pharma Mar, S.A.U., priority 2002, dated 2008).

Key:
Format in all cases: cell-based
IGROV = experiment: SRB colorimetric cell growth inhibition assay, IGROV; details: Homo sapiens, IGROV
How it was run: (§1)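 Growth inhibition (GI), cytostatic total growth inhibition (TGI) and cytotoxic cell-kill (LC) parameters were calculated from SRB-stained cultures held under constant compound exposure, triplicates averaged.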

SK-MEL-28 = experiment: SRB colorimetric cell growth inhibition assay, SK-MEL-28; details: Homo sapiens, SK-MEL-28, MEL-28
How it was run: as §1

LoVo = experiment: SRB colorimetric cell growth inhibition assay, LoVo; details: Homo sapiens, LoVo
How it was run: as §1

HT-29 = experiment: SRB colorimetric cell growth inhibition assay, HT-29; details: Homo sapiens, HT-29, HT-29
How it was run: as §1

LNCaP = experiment: SRB colorimetric cell growth inhibition assay, LNCaP; details: Homo sapiens, LNCaP, LN-caP
From the text: (§2) The finality of these assays is to interrupt the growth of an “in vitro” tumor cell culture by means a continued exhibition of the cells to the sample to be testing.
(§3) A colorimetric type of assay, using sulforhodamine B (SRB) reaction has been adapted for a quantitative measurement of cell growth and viability (following the technique described by P. A. Skehan, et al., J. Natl. Cancer Inst. 1990, 82, 1107-1112).
(§4) This form of assay employs 96 well cell culture microplates of 9 mm diameter (T. Mosmann et al., J. of Immunological Methods 1983, 65, 55-63; G. T. Faircloth et al., J. of Tissue and Culture Methods 1988, 11, 201-205).
(§5) Most of the cell lines are obtained from American Type Culture Collection (ATCC) derived from different human cancer types.
(§6) The values for mean +/− SD of data from triplicate wells are calculated. Some parameters for cellular responses can be calculated: GI=growth inhibition, TGI=total growth inhibition (cytostatic effect) and LC=cell killing (cytotoxic effect).

LoVo-Dox = experiment: SRB colorimetric cell growth inhibition assay, LoVo-Dox (MDR); details: Homo sapiens, LOVO-DOX
How it was run: as §1

PANC-1 = experiment: SRB colorimetric cell growth inhibition assay, PANC-1; details: Homo sapiens, PANC-1, PANC-1
How it was run: as §1

K-562 = experiment: SRB colorimetric cell growth inhibition assay, K-562; details: Homo sapiens, K562, K-562
From the text: as §2, §3, §4, §5, §6

DU-145 = experiment: SRB colorimetric cell growth inhibition assay, DU-145; details: Homo sapiens, DU-145, DU-145
How it was run: as §1

HeLa = experiment: SRB colorimetric cell growth inhibition assay, HeLa; details: Homo sapiens, HeLa
How it was run: as §1

HeLa-APL = experiment: SRB colorimetric cell growth inhibition assay, HeLa-APL (aplidine resistant); details: Homo sapiens, HELA-APL
How it was run: as §1

A-549 = experiment: SRB colorimetric cell growth inhibition assay, A-549; details: Homo sapiens, A549, A-549
How it was run: as §1

SK-BR-3 = experiment: SRB colorimetric cell growth inhibition assay, SK-BR-3; details: Homo sapiens, SK-BR-3, SK-BR-3
How it was run: as §1

IGROV-ET = experiment: SRB colorimetric cell growth inhibition assay, IGROV-ET (ET-743 resistant); details: Homo sapiens, IGROV-ET
How it was run: as §1

Q: Which results are given for COc1cc(-c2c3c4cc(OC)c(OC(=O)[C@H](C)NC(=O)[C@H](C)N)cc4oc(=O)c3n3ccc4c(OC(=O)[C@H](C)NC(=O)[C@H](C)N)c(OC)c(OC)cc4c23)ccc1OC(=O)[C@H](C)NC(=O)[C@H](C)N [Compound 5]?
A: GI50 (IGROV; GI=growth inhibition, read-out: GI50 IGROV): 247 nM; CC50 (IGROV; cell killing (cytotoxic effect), read-out: LC50 IGROV): 4540 nM; IC (TGI) (IGROV; total growth inhibition (cytostatic effect), read-out: TGI IGROV): 855 nM; GI50 (SK-MEL-28; GI=growth inhibition, read-out: GI50 MEL-28): 62.9 nM; CC50 (SK-MEL-28; cell killing (cytotoxic effect), read-out: LC50 MEL-28): 1120 nM; IC (TGI) (SK-MEL-28; total growth inhibition (cytostatic effect), read-out: TGI MEL-28): 249 nM; GI50 (LoVo; GI=growth inhibition, read-out: GI50 LOVO): 345 nM; CC50 (LoVo; cell killing (cytotoxic effect), read-out: LC50 LOVO): 4140 nM; IC (TGI) (LoVo; total growth inhibition (cytostatic effect), read-out: TGI LOVO): 1060 nM; GI50 (HT-29; GI=growth inhibition, read-out: GI50 HT-29): 1700 nM; CC50 (HT-29; cell killing (cytotoxic effect), read-out: LC50 HT-29): 6160 nM; IC (TGI) (HT-29; total growth inhibition (cytostatic effect), read-out: TGI HT-29): 3240 nM; GI50 (LNCaP; GI=growth inhibition, read-out: GI50 LN-caP): 223 nM; CC50 (LNCaP; cell killing (cytotoxic effect), read-out: LC50 LN-caP): 3620 nM; IC (TGI) (LNCaP; total growth inhibition (cytostatic effect), read-out: TGI LN-caP): 1050 nM; GI50 (LoVo-Dox; GI=growth inhibition, read-out: GI50 LOVO-DOX): 409 nM; CC50 (LoVo-Dox; cell killing (cytotoxic effect), read-out: LC50 LOVO-DOX): 3400 nM; IC (TGI) (LoVo-Dox; total growth inhibition (cytostatic effect), read-out: TGI LOVO-DOX): 1100 nM; GI50 (PANC-1; GI=growth inhibition, read-out: GI50 PANC-1): 418 nM; CC50 (PANC-1; cell killing (cytotoxic effect), read-out: LC50 PANC-1): 4510 nM; IC (TGI) (PANC-1; total growth inhibition (cytostatic effect), read-out: TGI PANC-1): 1640 nM; GI50 (K-562; GI=growth inhibition, read-out: GI50 K-562): 77 nM; CC50 (K-562; cell killing (cytotoxic effect), read-out: LC50 K-562): 7400 nM; IC (TGI) (K-562; total growth inhibition (cytostatic effect), read-out: TGI K-562): 1100 nM; GI50 (DU-145; GI=growth inhibition, read-out: GI50 DU-145): 35.6 nM; CC50 (DU-145; cell killing (cytotoxic effect), read-out: LC50 DU-145): 575 nM; IC (TGI) (DU-145; total growth inhibition (cytostatic effect), read-out: TGI DU-145): 119 nM; GI50 (HeLa; GI=growth inhibition, read-out: GI50 HELA): 124 nM; CC50 (HeLa; cell killing (cytotoxic effect), read-out: LC50 HELA): 3100 nM; IC (TGI) (HeLa; total growth inhibition (cytostatic effect), read-out: TGI HELA): 1120 nM; GI50 (HeLa-APL; GI=growth inhibition, read-out: GI50 HELA-APL): 310 nM; CC50 (HeLa-APL; cell killing (cytotoxic effect), read-out: LC50 HELA-APL): 5550 nM; IC (TGI) (HeLa-APL; total growth inhibition (cytostatic effect), read-out: TGI HELA-APL): 1710 nM; GI50 (A-549; GI=growth inhibition, read-out: GI50 A-549): 121 nM; CC50 (A-549; cell killing (cytotoxic effect), read-out: LC50 A-549): 4650 nM; IC (TGI) (A-549; total growth inhibition (cytostatic effect), read-out: TGI A-549): 1020 nM; GI50 (SK-BR-3; GI=growth inhibition, read-out: GI50 SK-BR-3): 241 nM; CC50 (SK-BR-3; cell killing (cytotoxic effect), read-out: LC50 SK-BR-3): 3540 nM; IC (TGI) (SK-BR-3; total growth inhibition (cytostatic effect), read-out: TGI SK-BR-3): 595 nM; GI50 (IGROV-ET; GI=growth inhibition, read-out: GI50 IGROV-ET): 212 nM; CC50 (IGROV-ET; cell killing (cytotoxic effect), read-out: LC50 IGROV-ET): 6090 nM; IC (TGI) (IGROV-ET; total growth inhibition (cytostatic effect), read-out: TGI IGROV-ET): 1060 nM
